Reference: patent US9637592B2, “Vitamin functionalized gel-forming block copolymers for biomedical applications” (International Business Machines Corporation, priority 2013, dated 2017)

How the values were obtained:
P. aeruginosa = test: killing efficiency / MBC; format: cell-based, Pseudomonas aeruginosa; conditions: drug alone
Description: Procedure for hydrogels: E. coli, P. aeruginosa, S. aureus and C. albicans were obtained from ATCC and reconstituted from its lyophilized form according to the manufacturer's protocol. Bacterial samples were cultured in Tryptic Soy Broth (TSB) solution at 37° C. under constant shaking of 300 rpm. C. albicans was culture in yeast medium at room temperature under constant shaking of 70 rpm. Prior to treatment, the bacterial sample was first inoculated and cultured to enter into log growth phase. To prepare the antimicrobial hydrogels, cationic polymer was first dissolved in filtered HPLC water in a bio-hood. The resultant solution was then added to solid triblock copolymer for dissolution and left to stand 4 hours at room temperature for the formation of the hydrogels (Example 28 and Example 29). […]
[…] The concentration of bacterial solution was adjusted to give an initial optical density (O.D.) reading of approximately 0.07 at 600 nm wavelength on a microplate reader (TECAN, Switzerland), which corresponds to the concentration of McFarland 1 solution (3×10^8 CFU/mL) The bacterial solution was then diluted and an equal volume of bacterial suspension (3×10^5) was added into each well. […] The plates were incubated for 24 hours at 37° C. and the number of colony-forming units (CFU) was counted. […]

C. albicans = format: cell-based, Candida albicans; conditions: solution, 5.0 mg/L (5 ppm)
Description: A stock solution of cationic polymer VE/PrBr(1:15) (5 mg) in sterile HPLC grade water (10 ml) was prepared having a final concentration of 500 mg/L (500 ppm). A second stock solution of fluconazole (1 mg) in sterile HPLC grade water (100 ml) was prepared having a final concentration of 10 mg/L (10 ppm). […] Formulation (2) was obtained by combining 125 microliters each of the stock solutions of cationic polymer and fluconazole and diluting the resulting solution with 750 microliters of sterile HPLC grade water.

Row | Substance | MBC against P. aeruginosa (P. aeruginosa) | killing efficiency against C. albicans (C. albicans)
1 | Doxycycline [DXY] | 20 to 30 µg/mL | 
2 | Fluconazole |  | 93.53%
